Test results: US7745465B2, “Method of enhancing cellular production of molecular chaperone, hydroxylamine derivatives useful for enhancing the chaperone production and the preparation thereof” (CytRx Corporation, priority 1995, dated 2010)

Tests used:
yeast cells = experiment: Proliferation of yeast cells; assay type: cell-based
Hsp72 [1] = experiment: Heat stress induced hsp72 expression in rat testicular explant; assay type: cell-based; details: 10^−5 M, 15 min. before 43° C. 30 min.
Description: Testis of CFY rats weighing of 200 g were removed in sterile conditions and the released testicular tubuli were suspended in 10% fetal bovine serum containing MEM culture medium in that way that five ml suspension contained 50-100 mg tissue. The explants were incubated in 5% CO2 containing humidified air at 37° C. for one hour, then the cultures were treated with 10^−5 M concentration of the tested compounds. After a further incubation for 15 min. at 37° C., explants were exposed to heat shock at 43° C. for 30 min. The amount of the induced hsp72 was measured after a further 6 hours incubation at 37° C.

[2] = system: WEHI mouse fibrosarcoma cell; experiment: Serum deprivation, cell viability by MTT test (WEHI); assay type: cell-based; details: serum deprived WEHI, 10^−5 M, control 100%, serum deprived alone 74.8%, read-out: relative cell viability
Description: Experiments were carried out using WEH1 mouse fibrosarcoma and H9c2 rat heart muscle cell lines divided into three groups: • control (10% FCS fetal calf serum) • serum deprived • N-[2-hydroxy-3-(1-piperidinyl)propoxy]-3-pyridinecarboximidoyl chloride maleate (10^−5 M) treated and serum deprived 1.2(i) Serum Deprivation and MTT Test
We have screened various cell lines, drug concentrations, pretreatment and deprivation times and we have found the most appropriate conditions as follows: […] H9c2 rat heart muscle cell (n=6) and WEHI mouse fibrosarcoma cell (n=7) have been plated on 24 well plates in 10% FCS DMEM (Dulbecco modified Eagle's medium) and incubated for 2 hours at 37 C, 5% CO2. Medium has been discarded and replaced by 10% FCS DMEM containing 10^−5 M N-[2-hydroxy-3-(1-piperidinyl)propoxy ]-3-pyridinecarboximidoyl chloride maleate. […] Cell viability was measured by MTT test based on the method of Plumb et al. (Cancer Res. 49: 4435-4444 (1989)) The tetrazolium salt method involving conversion of MTT (3-(4,5-dimethylthiazol-2yl)-2,5-diphenyltetrazolium bromide) to colored formazan by alive cells, served as an indirect measurement of cell viability. […] O.D. of the plates was read at 570 nm on an ELISA plate reader (Labsystems Multiskan Biochromatic type:348). […] Relative cell viability was calculated defining control group as 100%.

hsp72 [3] = experiment: Heat stress induced hsp72 level in U-937 leukemia cells; assay type: cell-based, human; details: U-937 cells, 10^−5 M, treatment preceded heat stress
Description: From the applied cells the 3T3 and L-929 mouse fibroblasts were cultured in MEM medium and grew in monolayer, the U-937 human leukemia cells were maintained in RPMI-1640 medium, in suspension culture, while the HeLa human epithelial cells were cultured in DMEM medium and in monolayer form. Cell cultures were maintained as described in example 6.2 (a) with the difference that cells were cultured in the above mentioned culture mediums.
Experiments were carried out applying stress before and after the drug treatment. Stress was provoked by heat, by chemical agent, HgCl2 treatment. The test compounds were applied in the treatments at the 10^−5 M concentration.
The experiments on 3T3 cell applying heat stress were performed as described in the 6.2. (c) point of example 6, with the difference that stress was induced by a 30 min. exposure at 43° C. temperature and treatment with the test compounds was performed 15 min. before or 100 min. after the heat stress.
Experiments using heat shock on U-937 leukemia and L-929 mouse fibroblast cells were carried out similarly as described above, but drug treatments in these tests always preceded the heat stress. The compound N-[2-hydroxy-3-(1-piperidinyl)-propoxy]-3-pyridine-carboximidoyl chloride maleate was tested at the 10^−5 M concentration under these experimental conditions.

GRP-94 = experiment: Level of GRP-94 in STZ diabetic rat liver (Western blot); assay type: in vivo; details: for relative amount of GRP-94: rats diabetic for 4 weeks
AP-1 = AP-1 transcription factor activity in yeast cells; assay type: cell-based
Source text: It was also investigated if the activity of AP-1 and P 1 transcription factors can be modulated by N-[2-hydroxy-3-(1-piperidinyl)propoxy]-3-piridinecarboximidoyl chloride maleate in yeast cells exposed to various stress conditions.

hsp26 mRNA = experiment: Northern blot of hsp26 mRNA in S. cerevisiae; assay type: cell-based, Saccharomyces cerevisiae; details: 10-100 μM for 5 min. to 1 hour at 25° C.
Description: To S. cerevisiae cells that were maintained at 25° C., varying concentration of N-[2-hydroxy-3-(1-piperidinyl)propoxy]-3-piridinecarboximidoyl chloride maleate was introduced (concentrations between 10 to 100 μM), cells were then incubated for one hour at 25° C. in the presence of N-[2-hydroxy-3-(1-piperidinyl)propoxy]-3-piridinecarboximidoyl chloride maleate. The temperature was then increased to 42° C., and the oxygraph measurements were taken as described in the Patriarca reference.
The cells treated with N-[2-hydroxy-3-(1-piperidinyl)propoxy]-3-pyridine carboximidoyl chloride maleate were tested for concomitant induction of hsp genes, using Northern Blotting procedure. The method of extracting, purifying mRNAs from eukaryotic cells, and analyzing the RNA thus obtained using Northern blotting procedure is well known in the art and described in Maniatis, and Maresca, et al. Archives Medial Research 24: 247-249 (1993), both of the references being fully incorporated herein. The Northern blotting protocol is also described in Example 7 set forth above. Hsp 26 and hsp70 DNA sequences were used as probes.

SMILES: O=C(O)/C=C\C(=O)O.OC(CON=C(Cl)c1cccnc1)CN1CCCCC1 (centres unmarked) [N-[2-hydroxy-3-(1-piperidinyl)-propoxy]3-pyridinecarboximidoyl chloride maleate]
- proliferative effect (yeast cells): unexpected proliferative effect
- Level of hsp72 relative to the stress exposed control (Hsp72 [1]): + + +
- viability at 10 µM [2]: 93%
- increase in the heat stress induced hsp72 level (hsp72 [3]): more than 50%
- decrease of relative GRP-94 content (GRP-94; 1 week and 2-weeks diabetic animals, 20 mg/kg/day p.o.): completely be reverted
- levels of GRP-94 compared to the control state (GRP-94; in combination with insulin, 1 week and 2-weeks samples): almost doubled
- relative amount of GRP-94 (GRP-94; compound alone): no significant alteration
- relative amount of GRP-94 (GRP-94; insulinized and treated with the compound): recovery of GRP-94 to the control level
- activity of AP-1 (AP-1; rich medium): decrease the activity of the factor
- activity of AP-1 (AP-1; supply of nutrients inadequate): increases the activity of AP-1
- induction of hsp 26 (hsp26 mRNA): induction of hsp 26 was observed
